Measured values reported in patent US12622910B2, “Inhibitors of Bruton's tyrosine kinase and methods of their use” (Janssen Pharmaceutica NV, priority 2021, dated 2026).
Like-named read-outs stand apart in the source and are kept apart here. Marks after values point to notes of the source that are not given here.

How the values were obtained:
[1] = Metabolic stability in liver microsomes; assay type: in vitro ADME, dog
Protocol: Additional Data on Preclinical PK Profile—Protein binding of the compound of Formula (III) was studied using an equilibrium dialysis method in plasma from human, cynomolgus monkey, beagle dog, Sprague Dawley rat, CD-1 mouse, and guinea pig at 0.25, 2.5, and 25 μM. […] In human and monkey, the plasma protein binding was concentration dependent. […] Free fraction of the compound of Formula (III) in liver microsomes from various species ranged from 75.1% to 87.9% at 0.25 mg/mL and from 58.9% to 86.5% at 1.0 mg/mL (Table 17). […] In hepatocytes, the compound of Formula (III) turnover followed a similar trend, with T1/2 ranging from 75.3 minutes in monkey to 278.1 minutes in human.

[2] = Preclinical PK, oral and IV; assay type: in vivo, rat; settings: for Cmax / Tmax / AUC(0-inf): po, 5 mg/kg; for AUC(0-inf): read-out: Oral AUCinf
[3] = Rat collagen-induced arthritis; assay type: in vivo, female Wistar rat; settings: female, Wistar, rat, plasma, oral, 2 mg/kg/day
Description: (§1) In vivo activity in collagen-induced arthritis—A rat CIA model in female Wistar rats was used to define the impact of the compound of Formula (III) on chronic inflammation and derive PK-PD correlations (FIG. 16). YiSaipu™ (recombinant human tumor necrosis factor-α receptor (type II): IgGI Fc (rhTNFR:Fc) fusion protein; biogeneric version of Etanercept™) was used as a comparator. […] The doses required to achieve meaningful efficacy correlated with a BTK target occupancy threshold of >75% over 24 hours based on the preceding target engagement studies.
(§2) Rat collagen-induced arthritis—An emulsion was prepared on ice from equal volumes of type II collagen (CII; Chondrex) (2 mg/mL in 100 mM acetic acid (Sinopharm Chemical Reagent Co. Ltd)) and Incomplete Freund's Adjuvant (IFA) (Sigma-Aldrich) by high speed homogenization (28,000 rpm) for 3 min (FLUKO Equipment Shanghai Co. Ltd). Eighty-two rats were used in the study. Before immunization, 6 rats were randomly selected as a naïve group. The other 76 rats were anesthetized with inhalational isoflurane, and injected intradermally at the base of the tail with 0.2 mL of the emulsion (1 mg/mL CII/IFA), 2 to 3 cm from the body on day 0 and day 7. On day 10, the 56 rats with the most developed arthritis based on paw volume measurements out of the 76 rats that were immunized were divided into 7 groups (n=8) with a stratified random block design according to average hind paw volume of each rat. Each group with similar starting paw inflammation was administered with vehicle or different doses of the compound of Formula (III) (0.3, 1, 2, 3, 10 mg/kg, PO, QD, days 10-17) or YiSaiPu (biosimilar etarnacept) (15 mg/kg, IP, QOD, days 10-16).
(§3) Hind paws volume and body weight were monitored daily for 7 consecutive days (days 10-16) after initiation of test article dosing. Left and right paw volumes in each rat were measured by a Plethysmometer (Catalog No. 7140, Ugo Basile. Italy). Blood (about 300 μL) in the groups treated with the compound of Formula (III) was collected into heparinized tubes via retro-orbital bleeding under isoflurane anesthesia on day 17-18. For groups treated with the compound of Formula (III), the composite collection time points were 0, 0.5, 1, 2, 4, 8, 12 and 24 hrs after last administration of the compound of Formula (III). After collection, blood samples were centrifuged (5,000 rpm for 10 min), plasma collected, and the concentrations of the compound of Formula (III) were determined using liquid chromatography mass spectrophotometry.

[4] = tested on: hind paw inflammation; experiment: Rat collagen-induced arthritis; assay type: in vivo, female Wistar rat
Description: as §1, §2, §3

[5] = tested on: OCI-LY10 xenografts; experiment: OCI-LY10 human ABC-DLBCL xenograft efficacy; assay type: in vivo, female NSG mice; settings: Day 45
Description: FIG. 20 depicts the effect of the compound of Formula (III) on growth of established OCI-LY10 human ABC-DLBCL xenografts in mice PEG400/PVP-VA64, Polyethylene glycol 400/N-vinylpyrrolidone and vinyl acetate 64; SEM, standard error of the mean. Group tumor volumes are graphed as the mean±SEM. Bar below x-axis indicates the treatment period. Groups are plotted while at least ⅔ of the animals remained on the study. Mice were implanted SC on the right flank on Day 0. Tumors were established 33 days post implantation, mice were randomized into experimental groups and dosed orally twice or once daily for 3 weeks (n=10/group).
To evaluate the duration of signaling shutdown and occupancy of BTK protein after compound administration, we determined the amount of free BTK protein in OCI-LY10 DLBCL tumor lysates harvested using an BTK occupancy assay. […] BTK protein occupancy levels remained high with 71%, 94% and 96%, respectively, at 12 hours and 70%, 91% and 85%, respectively after 24 hours. (FIG. 19). The antitumor efficacy of compound of Formula (III) was assessed in mice bearing established SC OCI-LY10 human CD79b mutant DLBCL xenografts in female NSG mice, dosed either once (QD) or twice (BID) a day. Analysis of tumor growth inhibition was performed 14 days into the 21-day treatment period (Day 45) as that was the last day when 2/3 of the vehicle controls remained on the study. Compound of Formula (III) induced tumor growth inhibition in the OCI-LY10 model at all dose levels. […] Taken together, the in vivo data support a first in-human trial of the compound of Formula (III) in combination with Venetoclax in patients with B cell lymphomas.

[6] = rat, in vivo, 5 mg/kg crystalline suspension PO (0.5% HPMC)
[7] = rat, in vivo, 5 mg/kg solution PO (20% HPβCD)

**Q.** For C=CC(=O)N[C@H]1CCC[C@H]1NC(=O)c1sc2nccc3c2c1NC(=O)N3c1cnc(CC(C)C)cc1C (atropisomer, axis not shown) [compound of Formula (III), N-((1R,2S)-2-Acrylamidocyclopentyl)-5-(S)-(6-isobutyl-4-methylpyridin-3-yl)-4-oxo-4,5-dihydro-3H-1-thia-3,5,8-triazaacenaphthylene-2-carboxamide], which “Extraction Ratio, liver microsomes” value ([1]; Dog) is on record?
**A.** The value was 0.65.

**Q.** What about the microsomal CLint ([1]; dog, liver microsomes) of the same compound?
**A.** The microsomal CLint was 40.6 µL/min/mg.

**Q.** And the half-life ([1]; dog, liver microsomes, read-out: T1/2, liver microsomes)?
**A.** Its half-life is 17.1 min.

**Q.** And the F ([2]; 5 mg/kg crystalline suspension PO (0.5% HPMC))?
**A.** Its F is 41 ± 19^b %.

**Q.** What about the F ([2]; 5 mg/kg solution PO (20% HPβCD)) of the same compound?
**A.** The F was 28 ± 6^a; %.

**Q.** And the clearance ([2]; rat, in vivo, iv)?
**A.** The clearance was 3.3 ± 0.12 L/h/kg.

**Q.** What about the half-life ([2]; rat, in vivo, iv, read-out: IV T1/2 (converted)) of the same compound?
**A.** The half-life was 24 min.

**Q.** What about the Vd ([2]; rat, in vivo, iv, read-out: Vss) of the same compound?
**A.** Its Vd is 1.9 ± 0.2 L/kg.

**Q.** And the Cmax [2, 6]?
**A.** Its Cmax is 0.133 ± 0.053 µg/mL.

**Q.** And the Tmax [2, 6]?
**A.** Its Tmax is 102 ± 36 min.

**Q.** What about the AUC(0-inf) [2, 6] of the same compound?
**A.** The AUC(0-inf) was 0.626 ± 0.29 µg·h/mL.

**Q.** What about the Cmax [2, 7] of the same compound?
**A.** The Cmax was 0.189 ± 0.081 µg/mL.

**Q.** And the Tmax [2, 7]?
**A.** The Tmax was 30 min.

**Q.** And the AUC(0-inf) [2, 7]?
**A.** The AUC(0-inf) was 0.425 ± 0.096 µg·h/mL.

**Q.** What about the AUC(0-t) ([3]; read-out: AUClast at efficacious dose) of the same compound?
**A.** Its AUC(0-t) is 0.324 µg·h/mL.

**Q.** And the Cmax ([3]; read-out: Cmax at efficacious dose)?
**A.** Its Cmax is 0.0466 µg/mL.

**Q.** What about the “effect on hind paw inflammation” value ([4]; 0.3, 1, 2, 3, 10 mg/kg/day PO QD) of the same compound?
**A.** Its value is “attenuated hind paw inflammation in a dose-dependent manner”.

**Q.** What about the “dose with effect on inflammation equivalent to anti-TNFα comparator” value ([4]; PO QD) of the same compound?
**A.** The value was at least 2 mg/kg/day.

**Q.** What about the TGI ([5]; 5 mg/kg BID) of the same compound?
**A.** The TGI was 26%.

**Q.** What about the ΔTGI ([5]; 5 mg/kg BID) of the same compound?
**A.** Its ΔTGI is 34%.

**Q.** What about the TGI ([5]; 10 mg/kg QD) of the same compound?
**A.** The TGI was 24%.

**Q.** And the ΔTGI ([5]; 10 mg/kg QD)?
**A.** Its ΔTGI is 30%.

**Q.** What about the TGI ([5]; 15 mg/kg BID) of the same compound?
**A.** Its TGI is 51%.

**Q.** What about the ΔTGI ([5]; 15 mg/kg BID) of the same compound?
**A.** Its ΔTGI is 66%.

**Q.** And the TGI ([5]; 30 mg/kg QD)?
**A.** The TGI was 35%.

**Q.** And the ΔTGI ([5]; 30 mg/kg QD)?
**A.** The ΔTGI was 45%.

**Q.** And the TGI ([5]; 50 mg/kg BID)?
**A.** The TGI was 78%.

**Q.** And the ΔTGI ([5]; 50 mg/kg BID)?
**A.** Its ΔTGI is 102%.

**Q.** What about the TGI ([5]; 100 mg/kg QD) of the same compound?
**A.** Its TGI is 51%.

**Q.** And the ΔTGI ([5]; 100 mg/kg QD)?
**A.** Its ΔTGI is 65%.
